Measurements published in patent publication US7173022B2, “Bicyclic heterocycles as HIV integrase inhibitors” (priority 2004, dated 2007).

Target: T1, HIV-integrase (Human immunodeficiency virus type 1 group M subtype B, UniProt P12497)
T1 construct: Recombinant integrase (0.26 ng) was incubated with the beads
Assay: HIV-Integrase Inhibition Activity (SPA bead strand transfer assay)
Type: biochemical
Conditions: recombinant integrase, biotin labeled substrate DNA on SPA beads, P33 labeled target DNA
Protocol: HIV-Integrase InhibitionActivity. To evaluate in-vitro activity against HIV-integrase, 5 pmole of biotin labeled substrate DNA was bound to 100 μg of Streptavidin coated PVT SPA beads (Amersham Pharmacia Biotech). Recombinant integrase (0.26 ng) was incubated with the beads for 90 min at 37° C. Unbound enzyme was removed by washing the complex followed by addition of inhibitors and 0.1 fmol of P33 labeled target DNA. The reaction was stopped by adding EDTA to a final concentration of 10 mM. Samples were counted in TopCountNXT (Packard) and the CPM was used as a measure of integration. The reaction condition was as described in A. Engelman and R. Craigie, J. Virol 69, 5908–5911 (1995). The sequences of substrate and target DNA were described in Nucleic Acid Research 22, 1121–1122 (1994).

| Structure (SMILES) | IC50 |
| --- | --- |
| CC1(C)CCn2c1nc(C(=O)NCc1ccc(F)cc1)c(O)c2=O [Example 1, N-(4-Fluorobenzyl)-3-hydroxy-8,8-dimethyl-4-oxo-4,6,7,8-tetrahydropyrrolo[1,2-a]pyrimidine-2-carboxamide] | 2 to 9 nM |
| CNC(=O)c1cc(F)ccc1CNC(=O)c1nc2n(c(=O)c1O)CCC2(C)C [Example 2, N-(4-Fluoro-2-(methylcarbamoyl)benzyl)-3-hydroxy-8,8-dimethyl-4-oxo-4,6,7,8-tetrahydropyrrolo[1,2-a]pyrimidine-2-carboxamide] | 10 to 49000 nM |
| CC1(C)CCn2c1nc(C(=O)NCc1ccc(F)cc1-n1cncn1)c(O)c2=O [Example 3, N-(4-fluoro-2-(1H-1,2,4-triazol-1-yl)benzyl)-3-hydroxy-8,8-dimethyl-4-oxo-4,6,7,8-tetrahydropyrrolo[1,2-a]pyrimidine-2-carboxamide] | 2 to 9 nM |
| CC1(C)CCCn2c1nc(C(=O)NCc1ccc(F)cc1)c(O)c2=O [Example 4, 3-Hydroxy-9,9-dimethyl-4-oxo-6,7,8,9-tetrahydro-4H-pyrido[1,2-a]pyrimidine-2-carboxylic acid 4-fluoro-benzylamide] | 2 to 9 nM |
| CNC(=O)c1cc(F)ccc1CNC(=O)c1nc2n(c(=O)c1O)CCCC2(C)C [Example 5, N-(4-Fluoro-2-(methylcarbamoyl)benzyl)-3-hydroxy-9,9-dimethyl-4-oxo-6,7,8,9-tetrahydro-4H-pyrido[1,2-a]pyrimidine-2-carboxamide] | 2 to 9 nM |
| CC1(C)CCCn2c1nc(C(=O)NCc1ccc(F)cc1-n1cncn1)c(O)c2=O [Example 6, N-(4-Fluoro-2-(1H-1,2,4-triazol-1-yl)benzyl)-3-hydroxy-9,9-dimethyl-4-oxo-6,7,8,9-tetrahydro-4H-pyrido[1,2-a]pyrimidine-2-carboxamide] | 2 to 9 nM |
| O=C(NCc1ccc(Cl)c(Cl)c1)c1nc2n(c(=O)c1O)CCC=C2c1ccccc1 [Example 7, N-(3,4-Dichlorobenzyl)-3-hydroxy-4-oxo-9-phenyl-6,7-dihydro-4H-pyrido[1,2-a]pyrimidine-2-carboxamide] | 2 to 9 nM |
| O=C(NCc1ccc(F)cc1)c1nc2n(c(=O)c1O)CCC=C2c1ccccc1 [Example 8, N-(4-Fluorobenzyl)-3-hydroxy-4-oxo-9-phenyl-6,7-dihydro-4H-pyrido[1,2-a]pyrimidine-2-carboxamide] | 2 to 9 nM |
| CNC(=O)c1cc(F)ccc1CNC(=O)c1nc2n(c(=O)c1O)CCC=C2c1ccccc1 [Example 9, N-(4-Fluoro-2-(methylcarbamoyl)benzyl)-3-hydroxy-4-oxo-9-phenyl-6,7-dihydro-4H-pyrido[1,2-a]pyrimidine-2-carboxamide] | 2 to 9 nM |
| O=C(NCc1ccc(F)cc1)c1nc2n(c(=O)c1O)CCC=C2c1cccnc1 [Example 10, N-(4-Fluorobenzyl)-3-hydroxy-4-oxo-9-(pyridin-3-yl)-6,7-dihydro-4H-pyrido[1,2-a]pyrimidine-2-carboxamide] | 2 to 9 nM |
| CNC(=O)c1cc(F)ccc1CNC(=O)c1nc2n(c(=O)c1O)CCC=C2c1cccnc1 [Example 11, N-(4-Fluoro-2-(methylcarbamoyl)benzyl)-3-hydroxy-4-oxo-9-(pyridin-3-yl)-6,7-dihydro-4H-pyrido[1,2-a]pyrimidine-2-carboxamide] | 2 to 9 nM |
| CC1(C)CCCCn2c1nc(C(=O)NCc1ccc(F)cc1)c(O)c2=O [Example 12, N-(4-Fluorobenzyl)-3-hydroxy-10,10-dimethyl-4-oxo-4,6,7,8,9,10-hexahydropyrimido[1,2-a]azepine-2-carboxamide] | 2 to 9 nM |
| CC1(C)CCCCn2c1nc(C(=O)NCc1ccc(F)cc1-n1cncn1)c(O)c2=O [Example 13, N-(4-Fluoro-2-(1H-1,2,4-triazol-1-yl)benzyl)-3-hydroxy-10,10-dimethyl-4-oxo-4,6,7,8,9,10-hexahydropyrimido[1,2-a]azepine-2-carboxamide] | 2 to 9 nM |
